# Legend:
# E. coli = test: MIC, broth microdilution; type: cell-based; conditions: Escherichia coli
# A. baumannii HUMC1 = test: Time kill assay in RPMI with or without amino acids; type: cell-based, Acinetobacter baumannii; conditions: RPMI alone vs RPMI with amino acids; 8 and 24 hrs
# [1] = tested on: A. baumannii AB5075 transposon disruption mutants; test: microbe, parasite or virus in culture; type: cell-based, Acinetobacter baumannii
compound,measurement,setting,value
CO[C@H]1/C=C/O[C@@]2(C)Oc3c(C)c(O)c4c(c3C2=O)C2=NC3(CCN(CC(C)C)CC3)NC2=C(NC(=O)/C(C)=C\C=C\[C@H](C)[C@H](O)[C@@H](C)[C@@H](O)[C@@H](C)[C@H](OC(C)=O)[C@@H]1C)C4=O [rifabutin],MIC,"E. coli; E. coli DH5a, MHII",6.25 µg/mL
same,MIC,"E. coli; E. coli JJ1886, MHII",6.25 µg/mL
same,MIC,"E. coli; E. coli JJ1886, RPMI",6.25 µg/mL
same,reduction in CFUs (time kill),A. baumannii HUMC1,greater reduction in CFUs
same,Rifabutin MIC,"[1]; AB00188, disrupted gene aroP, RPMI, listed as RBT",0.05 µg/mL
same,Rifabutin MIC,"[1]; AB00190, disrupted gene aroP, RPMI, listed as RBT",0.05 µg/mL
same,Rifabutin MIC,"[1]; AB00215, disrupted gene tryP, RPMI, listed as RBT",0.05 µg/mL
same,Rifabutin MIC,"[1]; AB00216, disrupted gene tryP, RPMI, listed as RBT",0.05 µg/mL
same,Rifabutin MIC,"[1]; AB01188, ABUW_0449 (hypothetical protein), MHII",1.56 µg/mL
same,Rifabutin MIC,"[1]; AB01188, ABUW_0449 (hypothetical protein), RPMI",0.05 µg/mL
same,Rifabutin MIC,"[1]; AB01192, ABUW_0449, MHII",1.56 µg/mL
same,Rifabutin MIC,"[1]; AB01192, ABUW_0449, RPMI",0.05 µg/mL
same,Rifabutin MIC,"[1]; AB01494, ABUW_0559 (putative phage-related membrane protein), MHII",3.13 µg/mL
same,Rifabutin MIC,"[1]; AB01494, ABUW_0559 (putative phage-related membrane protein), RPMI",0.05 µg/mL
same,Rifabutin MIC,"[1]; AB01495, ABUW_0559, MHII",6.25 µg/mL
same,Rifabutin MIC,"[1]; AB01495, ABUW_0559, RPMI",0.05 µg/mL
same,Rifabutin MIC,"[1]; AB02034, ABUW_0745 (hypothetical protein), MHII",0.78 µg/mL
same,Rifabutin MIC,"[1]; AB02034, ABUW_0745 (hypothetical protein), RPMI",0.05 µg/mL
same,Rifabutin MIC,"[1]; AB02035, ABUW_0745, MHII",1.56 µg/mL
same,Rifabutin MIC,"[1]; AB02035, ABUW_0745, RPMI",0.05 µg/mL
same,Rifabutin MIC,"[1]; AB02204, disrupted gene aroP, RPMI, listed as RBT",0.05 µg/mL
same,Rifabutin MIC,"[1]; AB02205, disrupted gene aroP, RPMI, listed as RBT",0.05 µg/mL
same,Rifabutin MIC,"[1]; AB02891, ABUW_1069 (NADH dehydrogenase), MHII",3.13 µg/mL
same,Rifabutin MIC,"[1]; AB02891, ABUW_1069 (NADH dehydrogenase), RPMI",0.05 µg/mL
same,Rifabutin MIC,"[1]; AB02892, ABUW_1069, MHII",6.25 µg/mL
same,Rifabutin MIC,"[1]; AB02892, ABUW_1069, RPMI",0.05 µg/mL
same,Rifabutin MIC,"[1]; AB03015, disrupted gene aroP, RPMI, listed as RBT",0.05 µg/mL
same,Rifabutin MIC,"[1]; AB03608, disrupted gene hisJ, RPMI, listed as RBT",0.05 µg/mL
same,Rifabutin MIC,"[1]; AB03612, disrupted gene hisM, RPMI, listed as RBT",0.05 µg/mL
same,Rifabutin MIC,"[1]; AB03616, disrupted gene hisM, RPMI, listed as RBT",0.05 µg/mL
same,Rifabutin MIC,"[1]; AB03618, disrupted gene hisM, RPMI, listed as RBT",0.05 µg/mL
same,Rifabutin MIC,"[1]; AB04576, ABUW_1741 (outer membrane protein assembly factor BamA), MHII",1.56 µg/mL
same,Rifabutin MIC,"[1]; AB04576, ABUW_1741 (outer membrane protein assembly factor BamA), RPMI",0.05 µg/mL
same,Rifabutin MIC,"[1]; AB04593, ABUW_1750 (HAD-superfamiy hydrolase), MHII",3.13 µg/mL
same,Rifabutin MIC,"[1]; AB04593, ABUW_1750 (HAD-superfamiy hydrolase), RPMI",0.05 µg/mL
same,Rifabutin MIC,"[1]; AB04594, ABUW_1750, MHII",3.13 µg/mL
same,Rifabutin MIC,"[1]; AB04594, ABUW_1750, RPMI",0.05 µg/mL
same,Rifabutin MIC,"[1]; AB04749, ABUW_1817 (putative peroxidase(alpha/beta hydrolase)), MHII",3.13 µg/mL
same,Rifabutin MIC,"[1]; AB04749, ABUW_1817 (putative peroxidase(alpha/beta hydrolase)), RPMI",0.05 µg/mL
same,Rifabutin MIC,"[1]; AB04750, ABUW_1817, MHII",3.13 µg/mL
same,Rifabutin MIC,"[1]; AB04750, ABUW_1817, RPMI",0.05 µg/mL
same,Rifabutin MIC,"[1]; AB5075-UW (parent strain), RPMI, listed as RBT",0.05 µg/mL
same,Rifabutin MIC,"[1]; AB05089, ABUW_1933 (NADP-dependent fatty aldehyde dehydrogenase), MHII",1.56 µg/mL
same,Rifabutin MIC,"[1]; AB05089, ABUW_1933 (NADP-dependent fatty aldehyde dehydrogenase), RPMI",0.05 µg/mL
same,Rifabutin MIC,"[1]; AB05348, ABUW_2057 (alcohol dehydrogenase), MHII",1.56 µg/mL
same,Rifabutin MIC,"[1]; AB05348, ABUW_2057 (alcohol dehydrogenase), RPMI",0.05 µg/mL
same,Rifabutin MIC,"[1]; AB05361, ABUW_2062 (phospholipase D family protein), MHII",1.56 µg/mL
same,Rifabutin MIC,"[1]; AB05361, ABUW_2062 (phospholipase D family protein), RPMI",0.05 µg/mL
same,Rifabutin MIC,"[1]; AB05362, ABUW_2062, MHII",1.56 µg/mL
same,Rifabutin MIC,"[1]; AB05362, ABUW_2062, RPMI",0.05 µg/mL
same,Rifabutin MIC,"[1]; AB05479, ABUW_2100 (LysR family transcriptional regulator), MHII",3.13 µg/mL
same,Rifabutin MIC,"[1]; AB05479, ABUW_2100 (LysR family transcriptional regulator), RPMI",0.05 µg/mL
same,Rifabutin MIC,"[1]; AB05480, ABUW_2100, MHII",1.56 µg/mL
same,Rifabutin MIC,"[1]; AB05480, ABUW_2100, RPMI",0.05 µg/mL
same,Rifabutin MIC,"[1]; AB05672, ABUW_2165, MHII",6.25 µg/mL
same,Rifabutin MIC,"[1]; AB05672, ABUW_2165, RPMI",3.13 µg/mL
same,Rifabutin MIC,"[1]; AB05673, ABUW_2165, MHII",3.13 µg/mL
same,Rifabutin MIC,"[1]; AB05673, ABUW_2165, RPMI",3.13 µg/mL
same,Rifabutin MIC,"[1]; AB05674, ABUW_2165, MHII",3.13 µg/mL
same,Rifabutin MIC,"[1]; AB05674, ABUW_2165, RPMI",1.56 µg/mL
same,Rifabutin MIC,"[1]; AB05756, ABUW_2194 (acyl-CoA dehydrogenase), MHII",1.56 µg/mL
same,Rifabutin MIC,"[1]; AB05756, ABUW_2194 (acyl-CoA dehydrogenase), RPMI",0.05 µg/mL
same,Rifabutin MIC,"[1]; AB05757, ABUW_2194, MHII",6.25 µg/mL
same,Rifabutin MIC,"[1]; AB05757, ABUW_2194, RPMI",0.05 µg/mL
same,Rifabutin MIC,"[1]; AB05837, ABUW_2228 (TonB-dependent receptor), MHII",3.13 µg/mL
same,Rifabutin MIC,"[1]; AB05837, ABUW_2228 (TonB-dependent receptor), RPMI",0.05 µg/mL
same,Rifabutin MIC,"[1]; AB05838, ABUW_2228, MHII",3.13 µg/mL
same,Rifabutin MIC,"[1]; AB05838, ABUW_2228, RPMI",0.05 µg/mL
same,Rifabutin MIC,"[1]; AB06047, ABUW_2307 (biotin synthase), MHII",0.05 µg/mL
same,Rifabutin MIC,"[1]; AB06047, ABUW_2307 (biotin synthase), RPMI",0.05 µg/mL
same,Rifabutin MIC,"[1]; AB06049, ABUW_2307, MHII",0.05 µg/mL
same,Rifabutin MIC,"[1]; AB06049, ABUW_2307, RPMI",0.05 µg/mL
same,Rifabutin MIC,"[1]; AB06076, ABUW_2318 (cytosine permease), RPMI",0.05 µg/mL
same,Rifabutin MIC,"[1]; AB06077, ABUW_2318, MHII",1.56 µg/mL
same,Rifabutin MIC,"[1]; AB06077, ABUW_2318, RPMI",0.05 µg/mL
same,Rifabutin MIC,"[1]; AB06089, ABUW_2322 (integrase), MHII",3.13 µg/mL
same,Rifabutin MIC,"[1]; AB06089, ABUW_2322 (integrase), RPMI",0.05 µg/mL
same,Rifabutin MIC,"[1]; AB06091, ABUW_2322, MHII",6.25 µg/mL
same,Rifabutin MIC,"[1]; AB06091, ABUW_2322, RPMI",0.05 µg/mL
same,Rifabutin MIC,"[1]; AB06105, disrupted gene aroP, RPMI, listed as RBT",0.05 µg/mL
same,Rifabutin MIC,"[1]; AB06383, disrupted gene hisJ, RPMI, listed as RBT",0.05 µg/mL
same,Rifabutin MIC,"[1]; AB06386, disrupted gene hisP, RPMI, listed as RBT",0.05 µg/mL
